Measured values reported in PubChem BioAssay AID2060885 (Molecular Pharmacology Branch, DTP, NCI, 2025).

Test system: NCI-H23 complex spheroids with HUVEC/MSC, viability
Assay: Anticancer human tumor NCI-H23 cell line growth inhibition [RAS];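 also: spheroids exposed to compound for 7 days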;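 as to viability, T/C: 100% = DMSO vehicle control viability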
Settings: for IC50: curve of first compound; for viability, T/C: stronger effect = lower value; active = viability on the fitted dose curve at most 10% of control; inactive = the rest
Outline: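 Tumour cells grown as complex spheroids with HUVEC endothelial cells and mesenchymal stem cells, treated with RAS pathway inhibitor combinations. Each agent spans half-log steps from near clinical Cmax, or 10 microM where Cmax is unknown.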

[1] = second compound 0.00316 µM, first compound 0.00316 µM
[2] = second compound 0.00316 µM, first compound 0.01 µM
[3] = second compound 0.00316 µM, first compound 0.0316 µM
[4] = second compound 0.00316 µM, first compound 0.1 µM
[5] = second compound 0.00316 µM, first compound 0.316 µM
[6] = second compound 0.00316 µM, first compound 1 µM
[7] = second compound 0.01 µM, first compound 0.00316 µM
[8] = second compound 0.01 µM, first compound 0.01 µM
[9] = second compound 0.01 µM, first compound 0.0316 µM
[10] = second compound 0.01 µM, first compound 0.1 µM
[11] = second compound 0.01 µM, first compound 0.316 µM
[12] = second compound 0.01 µM, first compound 1 µM
[13] = second compound 0.0316 µM, first compound 0.00316 µM
[14] = second compound 0.0316 µM, first compound 0.01 µM
[15] = second compound 0.0316 µM, first compound 0.0316 µM
[16] = second compound 0.0316 µM, first compound 0.1 µM
[17] = second compound 0.0316 µM, first compound 0.316 µM
[18] = second compound 0.0316 µM, first compound 1 µM
[19] = second compound 0.1 µM, first compound 0.00316 µM
[20] = second compound 0.1 µM, first compound 0.01 µM
[21] = second compound 0.1 µM, first compound 0.0316 µM
[22] = second compound 0.1 µM, first compound 0.1 µM
[23] = second compound 0.1 µM, first compound 0.316 µM
[24] = second compound 0.1 µM, first compound 1 µM
[25] = second compound 0.316 µM, first compound 0.00316 µM
[26] = second compound 0.316 µM, first compound 0.01 µM
[27] = second compound 0.316 µM, first compound 0.0316 µM
[28] = second compound 0.316 µM, first compound 0.1 µM
[29] = second compound 0.316 µM, first compound 0.316 µM
[30] = second compound 0.316 µM, first compound 1 µM
[31] = second compound 1 µM, first compound 0.00316 µM
[32] = second compound 1 µM, first compound 0.01 µM
[33] = second compound 1 µM, first compound 0.0316 µM
[34] = second compound 1 µM, first compound 0.1 µM
[35] = second compound 1 µM, first compound 0.316 µM
[36] = second compound 1 µM, first compound 1 µM

C=CC(=O)Nc1cc(Nc2nccc(-c3cn(C)c4ccccc34)n2)c(OC)cc1N(C)CCN(C)C + C=CC(=O)N1CCN(c2nc(OCC3CCCN3C)nc3c(F)c(-c4nc(N)cc(C)c4C(F)(F)F)c(Cl)cc23)C(C)C1
inactive: viability, T/C [1] 66.1% | viability, T/C [2] 83.2% | viability, T/C [3] 56.1% | viability, T/C [4] 53.5% | viability, T/C [5] 57.2% | viability, T/C [6] 49.6% | viability, T/C [7] 51.5% | viability, T/C [8] 52.9% | viability, T/C [9] 45.1% | viability, T/C [10] 36.9% | viability, T/C [11] 43.1% | viability, T/C [12] 37.1% | viability, T/C [13] 49.4% | viability, T/C [14] 48.3% | viability, T/C [15] 40.4% | viability, T/C [16] 35.2% | viability, T/C [17] 37.1% | viability, T/C [18] 33.6% | viability, T/C [19] 45% | viability, T/C [20] 39.4% | viability, T/C [21] 33.8% | viability, T/C [22] 34.4% | viability, T/C [23] 29.6% | viability, T/C [24] 27.3% | viability, T/C [25] 44.7% | viability, T/C [26] 43% | viability, T/C [27] 34% | viability, T/C [28] 32% | viability, T/C [29] 29.4% | viability, T/C [30] 35.5% | viability, T/C [31] 39.2% | viability, T/C [32] 41.5% | viability, T/C [33] 36.9% | viability, T/C [34] 34.9% | viability, T/C [35] 30.9% | viability, T/C [36] 28.3%
3.62 nM: IC50 (second compound 0.0316 µM)
< 3.16 nM: IC50 (second compound 0.1 µM) | IC50 (second compound 0.316 µM) | IC50 (second compound 1 µM)
1000 nM: IC50 (second compound 0.00316 µM)
7.6 nM: IC50 (second compound 0.01 µM)

CC(Nc1ccc2c(c1)OCCn1cc(N3C(=O)OCC3C(F)F)nc1-2)C(N)=O (stereo unspecified) + C=CC(=O)N1CCN(c2nc(OCC3CCCN3C)nc3c(F)c(-c4nc(N)cc(C)c4C(F)(F)F)c(Cl)cc23)C(C)C1
inactive: viability, T/C [3] 51.2% | viability, T/C [4] 60.2% | viability, T/C [5] 34.6% | viability, T/C [6] 39.1% | viability, T/C (second compound 0.00316 µM, first compound 3.16 µM) 35.8% | viability, T/C (second compound 0.00316 µM, first compound 10 µM) 38.3% | viability, T/C [9] 43.8% | viability, T/C [10] 40.7% | viability, T/C [11] 35.9% | viability, T/C [12] 28.7% | viability, T/C (second compound 0.01 µM, first compound 3.16 µM) 31% | viability, T/C (second compound 0.01 µM, first compound 10 µM) 26.5% | viability, T/C [15] 36.4% | viability, T/C [16] 35.5% | viability, T/C [17] 27.2% | viability, T/C [18] 27.3% | viability, T/C (second compound 0.0316 µM, first compound 3.16 µM) 24.8% | viability, T/C (second compound 0.0316 µM, first compound 10 µM) 23.3% | viability, T/C [21] 31.4% | viability, T/C [22] 29.3% | viability, T/C [23] 26.4% | viability, T/C [24] 27.6% | viability, T/C (second compound 0.1 µM, first compound 3.16 µM) 22.9% | viability, T/C (second compound 0.1 µM, first compound 10 µM) 22.4% | viability, T/C [27] 28.7% | viability, T/C [28] 31.2% | viability, T/C [29] 30% | viability, T/C [30] 23.7% | viability, T/C (second compound 0.316 µM, first compound 3.16 µM) 25.9% | viability, T/C (second compound 0.316 µM, first compound 10 µM) 24.3% | viability, T/C [33] 33% | viability, T/C [34] 33.5% | viability, T/C [35] 28.8% | viability, T/C [36] 22.5% | viability, T/C (second compound 1 µM, first compound 3.16 µM) 27.8% | viability, T/C (second compound 1 µM, first compound 10 µM) 25%
< 31.6 nM: IC50 (second compound 0.01 µM) | IC50 (second compound 0.0316 µM) | IC50 (second compound 0.1 µM) | IC50 (second compound 0.316 µM) | IC50 (second compound 1 µM)
142 nM: IC50 (second compound 0.00316 µM)

O=C(c1ccc(F)c(F)c1Nc1ccc(I)cc1F)N1CC(O)([C@@H]2CCCCN2)C1 + C=CC(=O)N1CCN(c2nc(OCC3CCCN3C)nc3c(F)c(-c4nc(N)cc(C)c4C(F)(F)F)c(Cl)cc23)C(C)C1
inactive: viability, T/C [1] 58.7% | viability, T/C [2] 61% | viability, T/C [3] 52.9% | viability, T/C [4] 40.7% | viability, T/C [5] 29.3% | viability, T/C [6] 16.8% | viability, T/C [7] 50.9% | viability, T/C [8] 50.1% | viability, T/C [9] 41.1% | viability, T/C [10] 40% | viability, T/C [11] 28.6% | viability, T/C [12] 14.9% | viability, T/C [13] 44.7% | viability, T/C [14] 48.9% | viability, T/C [15] 37.2% | viability, T/C [16] 32.4% | viability, T/C [17] 24% | viability, T/C [18] 11.8% | viability, T/C [19] 37.1% | viability, T/C [20] 40.2% | viability, T/C [21] 33.3% | viability, T/C [22] 28.9% | viability, T/C [23] 24% | viability, T/C [24] 13.4% | viability, T/C [25] 40% | viability, T/C [26] 37.5% | viability, T/C [27] 30.6% | viability, T/C [28] 28% | viability, T/C [29] 21.2% | viability, T/C [30] 13.7% | viability, T/C [31] 39% | viability, T/C [32] 38.4% | viability, T/C [33] 31.4% | viability, T/C [34] 32.7% | viability, T/C [35] 24.2% | viability, T/C [36] 12.6%
43.5 nM: IC50 (second compound 0.00316 µM)
4.49 nM: IC50 (second compound 0.01 µM)
< 3.16 nM: IC50 (second compound 0.0316 µM) | IC50 (second compound 0.1 µM) | IC50 (second compound 0.316 µM) | IC50 (second compound 1 µM)
